Experimental data as given in patent US20230212159A1, “Process for the Production of Ferroportin Inhibitors” (Vifor (International) AG, priority 2020, published 2023).

Biological target: T1, human Fpn (Homo sapiens, UniProt Q9NP59)
T1 construct: FLAG (C); made in house; host or cells: Pichia pastoris
T1 sequence (Q9NP59 1-571): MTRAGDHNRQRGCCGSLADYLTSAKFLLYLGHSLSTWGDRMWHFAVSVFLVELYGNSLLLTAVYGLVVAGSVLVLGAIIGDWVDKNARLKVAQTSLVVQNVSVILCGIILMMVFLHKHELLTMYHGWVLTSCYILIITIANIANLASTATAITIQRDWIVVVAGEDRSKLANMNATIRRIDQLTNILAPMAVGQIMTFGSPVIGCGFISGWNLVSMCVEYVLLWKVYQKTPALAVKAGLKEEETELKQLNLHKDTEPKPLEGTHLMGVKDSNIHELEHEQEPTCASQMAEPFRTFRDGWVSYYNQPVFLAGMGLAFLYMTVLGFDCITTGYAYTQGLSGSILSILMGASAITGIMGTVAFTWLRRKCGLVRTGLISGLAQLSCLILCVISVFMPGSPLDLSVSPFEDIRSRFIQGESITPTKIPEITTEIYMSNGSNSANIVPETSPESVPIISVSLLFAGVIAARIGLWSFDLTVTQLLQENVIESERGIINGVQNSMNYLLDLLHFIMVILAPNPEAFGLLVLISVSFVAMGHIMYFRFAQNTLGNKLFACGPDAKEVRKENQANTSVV
Experiment: Biophysical ferroportin-hepcidin binding assay (fluorescence polarization)
Settings: TMR-hepcidin, tested as 3HCl-salts, n=2, read-out: Biophysical Ferroportin-Hepcidin Binding (FP) IC50
Method: This biophysical assay was developed to confirm inhibition of hepcidin binding to ferroportin (Fpn) more directly. Incubation of TMR-hepcidin with purified human Fpn isolated from Pichia pastoris yeast cells expressing human Fpn with a C-terminal FLAG affinity tag (Bonaccorsi di Patti, 2014) leads to increased fluorescence polarization (FP) of the TMR-hepcidin ligand.
A mixture of […] human Fpn and 30 nM TMR-hepcidin in FP assay buffer containing 50 mM Tris-HCI pH 7.3, 200 mM NaCI, 0.02% DDM, 0.1% BSA was plated into a 384 well black low volume round bottom plate (Corning, Cat. 3677) at […] per well. […] of serial dilutions of test compounds were added in duplicates to reach final Fpn and TMR-hepcidin concentrations of […] and 20 nM, respectively. Plates were incubated for 90 minutes at room temperature and parallel (S) and perpendicular (P) fluorescence was measured in a Synergy H1 fluorescence reader (BioTek). FP values were calculated in mP according to the following formula.
IC50 values were determined with the calculated mP values as described for the hepcidin internalization assay and are listed in Table 2.

IC50 | SMILES
28 nM | O=C(NCc1ncccc1F)c1coc(CCNCCc2nc3ccccc3[nH]2)n1 [Compound (II)]
28 nM | O=C(NCc1ncccc1Br)c1coc(CCNCCc2nc3ccccc3[nH]2)n1 [Compound (II′)]
